# Peptide text beside a SMILES is read from it.
# Tested on: RBL-2H3/ETFR cells
# Assay: RBL-2H3/ETFR cell migration, xCELLigence RTCA
# Assay type: cell-based, rat
# Conditions: 4 hours, Cell Index, quadruplicate
# Experimental: We have previously documented that SRSRY competes with the bacterial-derived N-formyl-methionyl-leucyl-phenylalanine peptide (fMLF) for binding to FPR type 1 (FPR1) and that both SRSRY and fMLF promote cell migration by triggering FPR1 internalization. […] Quantification of cell-associated fluorescence was assessed by reading cell lysates with a fluorescence plate reader. RBL-2H3 cells lack FPR1, thus they display very low uptake that was not saturable with unlabeled fMLF (Fig 2A). […] To evaluate the effect of [SRSRY] on agonist-dependent FPR1 internalization, binding experiments were performed at 37°C. […] Thus, we assessed whether [SRSRY] elicits effects on fMLF-directed cell migration. RBL-2H3/ETFR cell migration toward 10 nM fMLF was monitored in real-time for 4 hours as Cell Index changes due to the adhesion of migrating cells to microelectrodes using the xCELLigence RTCA technology as previously described. […]
# Fig 2 Both linear and cyclic SRSRY peptides bind to FPR1. […] Fluorimetric measurement of cell-associated fluorescence was assed using 485 nm excitation and 535 nm emission filters. Data are expressed as a percentage of the fluorescence associated to RBL-2H3 cells exposed to FITC-fMLF alone (CTL = 100%) and represent a mean ± SD from triplicates. *Statistical significance (t-test) against None with p<0.001. […] Cell migration of RBL-2H3/ETFR cells monitored by the xCELLigence system. […]
compound,measurement,setting,value
"N=C(N)NCCC[C@@H]1NC(=O)[C@H](CO)NC(=O)[C@H](Cc2ccc(O)cc2)NC(=O)[C@H](CCCNC(=N)N)NC(=O)[C@H](CO)NC1=O [[SRSRY], [Ser-Arg-Ser-Arg-Tyr]] (cyclo(RSRYS))",RBL-2H3/ETFR cell migration toward 10 nM fMLF in presence of peptide,10 nM fMLF mixed with 10 nM peptide,reduced to the basal level
same,RBL-2H3/ETFR cell migration toward the peptide alone,10 nM peptide in lower chamber,cell migration did not change significantly
